Laboratory results as given in patent US20230072683A1, “PYRIDO-PYRIMIDIN DERIVATIVES AND PHARMACEUTICAL COMPOSITION, FOR USE IN PREVENTING OR TREATING PI3 KINASE RELATED DISEASES, COMPRISING SAME AS ACTIVE INGREDIENT” (BORYUNG PHARMACEUTICAL CO., LTD, priority 2019, published 2023).

Tests used:
[1] = target: PI3K-δ (PI3K(p1108/p857) (h)) (Homo sapiens, UniProt O00329); experiment: Evaluation of inhibitory activity against PI3K-δ (HTRF kinase assay); type: biochemical; settings: compound concentration 0.01 μM; read-out: EXP_VALUE(% Inhibition) PI3K-δ 0.01 μM
PI3K-δ (PI3K(p1108/p857) (h)), sequence (O00329 whole entry): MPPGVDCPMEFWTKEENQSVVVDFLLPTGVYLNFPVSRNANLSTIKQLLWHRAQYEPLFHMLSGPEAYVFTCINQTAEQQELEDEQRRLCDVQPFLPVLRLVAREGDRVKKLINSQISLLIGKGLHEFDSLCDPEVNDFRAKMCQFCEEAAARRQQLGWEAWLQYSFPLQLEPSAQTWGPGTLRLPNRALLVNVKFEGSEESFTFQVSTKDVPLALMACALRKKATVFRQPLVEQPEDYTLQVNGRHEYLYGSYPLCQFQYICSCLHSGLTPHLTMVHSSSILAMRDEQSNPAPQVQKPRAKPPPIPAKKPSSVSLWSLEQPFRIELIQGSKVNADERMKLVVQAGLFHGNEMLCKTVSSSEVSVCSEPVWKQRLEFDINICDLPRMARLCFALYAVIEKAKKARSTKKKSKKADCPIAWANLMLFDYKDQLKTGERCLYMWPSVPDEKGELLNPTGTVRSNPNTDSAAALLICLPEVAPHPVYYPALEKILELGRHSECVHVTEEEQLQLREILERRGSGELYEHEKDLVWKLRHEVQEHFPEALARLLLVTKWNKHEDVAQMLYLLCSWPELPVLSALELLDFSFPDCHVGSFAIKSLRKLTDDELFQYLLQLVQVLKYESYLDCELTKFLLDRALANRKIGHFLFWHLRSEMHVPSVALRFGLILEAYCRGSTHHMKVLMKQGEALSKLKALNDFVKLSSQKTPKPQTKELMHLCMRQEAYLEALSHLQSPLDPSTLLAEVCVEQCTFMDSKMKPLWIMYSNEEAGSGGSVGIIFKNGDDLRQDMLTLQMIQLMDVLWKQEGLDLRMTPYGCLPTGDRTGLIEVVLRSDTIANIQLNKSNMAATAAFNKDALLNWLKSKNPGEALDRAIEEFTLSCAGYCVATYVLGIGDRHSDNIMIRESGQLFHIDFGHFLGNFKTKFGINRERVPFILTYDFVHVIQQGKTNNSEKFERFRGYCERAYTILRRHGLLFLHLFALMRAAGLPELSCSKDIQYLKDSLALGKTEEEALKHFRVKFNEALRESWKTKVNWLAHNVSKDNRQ
PI3K-δ (PI3K(p1108/p857) (h)), sequence (P27986 whole entry partner): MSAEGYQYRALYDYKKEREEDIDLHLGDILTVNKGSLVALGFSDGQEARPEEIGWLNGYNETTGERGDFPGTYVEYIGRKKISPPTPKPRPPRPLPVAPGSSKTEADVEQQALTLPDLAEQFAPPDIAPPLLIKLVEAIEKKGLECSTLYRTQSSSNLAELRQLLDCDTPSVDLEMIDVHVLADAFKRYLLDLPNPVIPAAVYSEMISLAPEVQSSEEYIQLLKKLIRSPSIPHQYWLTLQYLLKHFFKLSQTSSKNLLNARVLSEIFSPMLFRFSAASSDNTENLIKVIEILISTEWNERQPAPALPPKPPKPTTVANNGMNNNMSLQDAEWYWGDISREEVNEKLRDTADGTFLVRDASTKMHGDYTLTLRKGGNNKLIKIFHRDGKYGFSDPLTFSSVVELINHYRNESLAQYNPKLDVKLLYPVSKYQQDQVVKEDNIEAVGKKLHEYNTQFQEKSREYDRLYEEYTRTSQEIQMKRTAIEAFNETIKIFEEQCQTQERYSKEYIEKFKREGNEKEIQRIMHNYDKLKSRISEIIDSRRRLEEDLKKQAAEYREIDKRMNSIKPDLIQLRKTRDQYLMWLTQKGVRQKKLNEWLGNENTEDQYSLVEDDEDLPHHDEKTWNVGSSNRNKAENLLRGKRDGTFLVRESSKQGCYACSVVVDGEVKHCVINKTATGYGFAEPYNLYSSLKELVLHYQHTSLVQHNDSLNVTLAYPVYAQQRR
Method: <Experimental Example 1> Evaluation of Inhibitory Activity Properties Against PI3K-δ
The following experiments were performed to verify the inhibitory activity against PI3K-δ with regard to each of the compounds of Examples 1 to 441 according to the present invention.
PI3K(p1108/p857) (h) was incubated in assay buffer comprising 10 μM phosphatidylinositol-4,5-bisphosphate and Mg/ATP (at a concentration as required). The reaction was initiated by the addition of a Mg/ATP mixture, and after incubation for 30 minutes at room temperature, a stop solution comprising EDTA and phosphatidylinositol-3,4,5-triphosphate was added to stop the reaction and carry out biotinylation.
A detection buffer comprising Eu (europium)-labelled anti-GST monoclonal antibody, GST-tagged GRP1 PH domain and streptavidin-allophycocyanin was added. A plate was read in a time-resolved fluorescence mode and a homogeneous time-resolved fluorescence (HTRF) signal was determined according to HTRF=10000×(Em 665 nm/Em 620 nm).

DNA-PK(h) = DNA-PK(h) (Homo sapiens, UniProt P78527); experiment: Evaluation of inhibitory activity against DNA-PK (HTRF kinase assay, GST-cMyc-p53 substrate); type: biochemical; settings: compound concentration 0.01 μM; read-out: EXP_VALUE(% Inhibition) DNA-PK(h) 0.01 μM
Method: <Experimental Example 2> Evaluation of Inhibitory Activity Properties Against DNA-PK
The following experiments were performed to verify the inhibitory activity against DNA-PK with regard to each of the compounds of Examples 1 to 441 according to the present invention.
DNA-PK(h) was subjected to an isothermal treatment in an assay buffer comprising […] GST-cMyc-p53 and Mg/ATP (at a concentration as required). The reaction was initiated by the addition of a Mg/ATP mixture, and after incubation for 30 minutes at room temperature, a stop solution comprising EDTA was added to stop the reaction. A detection buffer comprising d2-labelled anti-GST monoclonal antibody and Europium-labelled anti-phospho Ser15 antibody for phosphorylated p53 was added. A plate was read in a time-resolved fluorescence mode and a homogeneous time-resolved fluorescence (HTRF) signal was determined according to HTRF=10000×(Em 665 nm/Em 620 nm).

| inhibition at 0.01 µM [1] [%] | inhibition at 0.01 µM (DNA-PK(h)) [%] | SMILES |
| --- | --- | --- |
| 47 | 57 | C[C@H](Nc1ncnc2[nH]ccc(=O)c12)c1c(Cl)c2cccc(-c3cnc(CC#N)nc3)c2c(=O)n1-c1ccccc1 [Example 39, (S)-2-(5-(4-chloro-1-oxo-3-(1-((5-oxo-5,8-dihydropyrido[2,3-d]pyrimidin-4-yl)amino)ethyl)-2-phenyl-1,2-dihydroisoquinolin-8-yl)pyrimidin-2-yl)acetonitrile] |
| 67 | 61 | C[C@H](Nc1ncnc2[nH]ccc(=O)c12)c1c(Cl)c2cccc(-c3cnc4nncn4c3)c2c(=O)n1-c1ccccc1 [Example 40, (S)-4-((1-(8-([1,2,4]triazolo[4,3-a]pyrimidin-6-yl)-4-chloro-1-oxo-2-phenyl-1,2-dihydroisoquinolin-3-yl)ethyl)amino)pyrido[2,3-d]pyrimidin-5(8H)-one] |
| 79 | 43 | C[C@H](Nc1ncnc2[nH]ccc(=O)c12)c1c(Cl)c2cccc(-c3cnc(C#N)nc3)c2c(=O)n1-c1ccccc1 [Example 44, (S)-5-(4-chloro-1-oxo-3-(1-((5-oxo-5,8-dihydropyrido[2,3-d]pyrimidin-4-yl)amino)ethyl)-2-phenyl-1,2-dihydroisoquinolin-8-yl)pyrimidine-2-carbonitrile] |
| 42 | 27 | C[C@H](Nc1ncnc2[nH]ccc(=O)c12)c1c(Cl)c2cccc(-c3ccc(C4CC4)nc3)c2c(=O)n1-c1ccccc1 [Example 46, (S)-4-((1-(4-chloro-8-(6-cyclopropylpyridin-3-yl)-1-oxo-2-phenyl-1,2-dihydroisoquinolin-3-yl)ethyl)amino)pyrido[2,3-d]pyrimidin-5(8H)-one] |
| 86 | 48 | C[C@H](Nc1ncnc2[nH]ccc(=O)c12)c1c(Cl)c2cccc(-c3ccc(C(=O)O)nc3)c2c(=O)n1-c1ccccc1 [Example 47, (S)-5-(4-chloro-1-oxo-3-(1-((5-oxo-5,8-dihydropyrido[2,3-d]pyrimidin-4-yl)amino)ethyl)-2-phenyl-1,2-dihydroisoquinolin-8-yl)picolinic acid] |
| 96 | 53 | C[C@H](Nc1ncnc2[nH]ccc(=O)c12)c1c(Cl)c2cccc(-c3cc(O)ncn3)c2c(=O)n1-c1ccccc1 [Example 50, (S)-4-((1-(4-chloro-8-(6-hydroxypyrimidin-4-yl)-1-oxo-2-phenyl-1,2-dihydroisoquinolin-3-yl)ethyl)amino)pyrido[2,3-d]pyrimidin-5(8H)-one] |
| 11 | -3 | C[C@H](Nc1ncnc2[nH]ccc(=O)c12)c1c(Cl)c2cccc(-c3ncc(F)cn3)c2c(=O)n1-c1ccccc1 [Example 53, (S)-4-((1-(4-chloro-8-(5-fluoropyrimidin-2-yl)-1-oxo-2-phenyl-1,2-dihydroisoquinolin-3-yl)ethyl)amino)pyrido[2,3-d]pyrimidin-5(8H)-one] |
| 55 | 42 | C[C@H](Nc1ncnc2[nH]ccc(=O)c12)c1c(Cl)c2cccc(-c3cnc(C4CCC4)nc3)c2c(=O)n1-c1ccccc1 [Example 54, (S)-4-((1-(4-chloro-8-(2-cyclobutylpyrimidin-5-yl)-1-oxo-2-phenyl-1,2-dihydroisoquinolin-3-yl)ethyl)amino)pyrido[2,3-d]pyrimidin-5(8H)-one] |
| 59 | 44 | COCc1ncc(-c2cccc3c(Cl)c([C@H](C)Nc4ncnc5[nH]ccc(=O)c45)n(-c4ccccc4)c(=O)c23)cn1 [Example 55, (S)-4-((1-(4-chloro-8-(2-(methoxymethyl)pyrimidin-5-yl)-1-oxo-2-phenyl-1,2-dihydroisoquinolin-3-yl)ethyl)amino)pyrido[2,3-d]pyrimidin-5(8H)-one] |
| 81 | 78 | C[C@H](Nc1ncnc2[nH]ccc(=O)c12)c1c(Cl)c2cccc(-c3cnc(N)nc3)c2c(=O)n1-c1ccccc1 [Example 56, (S)-4-((1-(8-(2-aminopyrimidin-5-yl)-4-chloro-1-oxo-2-phenyl-1,2-dihydroisoquinolin-3-yl)ethyl)amino)pyrido[2,3-d]pyrimidin-5(8H)-one] |

Second part, the molecule before the results:

| SMILES | inhibition at 0.01 µM [1] [%] | inhibition at 0.01 µM (DNA-PK(h)) [%] |
| --- | --- | --- |
| C[C@H](Nc1ncnc2[nH]ccc(=O)c12)c1c(Cl)c2cccc(-c3ccc4nncn4c3)c2c(=O)n1-c1ccccc1 [Example 37, (S)-4-((1-(8-([1,2,4]triazolo[4,3-a]pyridin-6-yl)-4-chloro-1-oxo-2-phenyl-1,2-dihydroisoquinolin-3-yl)ethyl)amino)pyrido[2,3-d]pyrimidin-5(8H)-one] | 89 | 60 |
| C[C@H](Nc1ncnc2[nH]ccc(=O)c12)c1c(Cl)c2ccccc2c(=O)n1-c1ccccc1 [Example 38, (S)-4-((1-(4-chloro-1-oxo-2-phenyl-1,2-dihydroisoquinolin-3-yl)ethyl)amino)pyrido[2,3-d]pyrimidin-5(8H)-one] | 71 | 46 |
| COc1ccc(-c2cccc3c(Cl)c([C@H](C)Nc4ncnc5[nH]ccc(=O)c45)n(-c4ccccc4)c(=O)c23)nc1 [Example 41, (S)-4-((1-(4-chloro-8-(5-methoxypyridin-2-yl)-1-oxo-2-phenyl-1,2-dihydroisoquinolin-3-yl)ethyl)amino)pyrido[2,3-d]pyrimidin-5(8H)-one] | 89 | 79 |
| C[C@H](Nc1ncnc2[nH]ccc(=O)c12)c1c(Cl)c2cccc(-c3ccc4ncnn4c3)c2c(=O)n1-c1ccccc1 [Example 42, (S)-4-((1-(8-([1,2,4]triazolo[1,5-a]pyridin-6-yl)-4-chloro-1-oxo-2-phenyl-1,2-dihydroisoquinolin-3-yl)ethyl)amino)pyrido[2,3-d]pyrimidin-5(8H)-one] | 89 | 76 |
| COc1cnc(-n2ccc(=O)c3c(N[C@@H](C)c4c(Cl)c5ccccc5c(=O)n4-c4ccccc4)ncnc32)nc1 [Example 43, (S)-4-((1-(4-chloro-1-oxo-2-phenyl-1,2-dihydroisoquinolin-3-yl)ethyl)amino)-8-(5-methoxypyrimidin-2-yl)pyrido[2,3-d]pyrimidin-5(8H)-one] | 9 | 3 |
| COc1cc(-c2cccc3c(Cl)c([C@H](C)Nc4ncnc5[nH]ccc(=O)c45)n(-c4ccccc4)c(=O)c23)ncn1 [Example 45, (S)-4-((1-(4-chloro-8-(6-methoxypyrimidin-4-yl)-1-oxo-2-phenyl-1,2-dihydroisoquinolin-3-yl)ethyl)amino)pyrido[2,3-d]pyrimidin-5(8H)-one] | 10 | 2 |
| C[C@H](Nc1ncnc2[nH]ccc(=O)c12)c1c(Cl)c2cccc(-c3cnc4ccccc4n3)c2c(=O)n1-c1ccccc1 [Example 48, (S)-4-((1-(4-chloro-1-oxo-2-phenyl-8-(quinoxalin-2-yl)-1,2-dihydroisoquinolin-3-yl)ethyl)amino)pyrido[2,3-d]pyrimidin-5(8H)-one] | 7 | -5 |
| COc1cc(-c2cccc3c(Cl)c([C@H](C)Nc4ncnc5[nH]ccc(=O)c45)n(-c4ccccc4)c(=O)c23)nc(OC)n1 [Example 49, (S)-4-((1-(4-chloro-8-(2,6-dimethoxypyrimidin-4-yl)-1-oxo-2-phenyl-1,2-dihydroisoquinolin-3-yl)ethyl)amino)pyrido[2,3-d]pyrimidin-5(8H)-one] | 23 | -3 |
| C[C@H](Nc1ncnc2[nH]ccc(=O)c12)c1c(Cl)c2cccc(-c3cnc(C(F)(F)F)cn3)c2c(=O)n1-c1ccccc1 [Example 51, (S)-4-((1-(4-chloro-1-oxo-2-phenyl-8-(5-(trifluoromethyl)pyrazin-2-yl)-1,2-dihydroisoquinolin-3-yl)ethyl)amino)pyrido[2,3-d]pyrimidin-5(8H)-one] | 6 | -15 |
| C[C@H](Nc1ncnc2[nH]ccc(=O)c12)c1c(Cl)c2cccc(-c3ncc(C(F)(F)F)cn3)c2c(=O)n1-c1ccccc1 [Example 52, (S)-4-((1-(4-chloro-1-oxo-2-phenyl-8-(5-(trifluoromethyl)pyrimidin-2-yl)-1,2-dihydroisoquinolin-3-yl)ethyl)amino)pyrido[2,3-d]pyrimidin-5(8H)-one] | 13 | -2 |
| CC(O)c1ccc(-c2cccc3c(Cl)c([C@H](C)Nc4ncnc5[nH]ccc(=O)c45)n(-c4ccccc4)c(=O)c23)cc1 (stereo partly drawn) [Example 57, 4-(((1S)-1-(4-chloro-8-(4-(1-hydroxyethyl)phenyl)-1-oxo-2-phenyl-1,2-dihydroisoquinolin-3-yl)ethyl)amino)pyrido[2,3-d]pyrimidin-5(8H)-one] | 97 | 80 |
